Values after ≈ are worked out from the molar mass of the structure shown.
Columns and labels:
NCI-H460 = assay: Cytotoxicity against human NCI-H460 cells; type: functional
DU-145 = assay: Cytotoxicity against human DU145 cells; type: functional
KM-20L2 = assay: Cytotoxicity against human KM20L2 cells; type: functional
BXPC-3 = assay: Cytotoxicity against human BxPC3 cells; type: functional
SF-268 = assay: Cytotoxicity against human SF268 cells; type: functional
P388 = assay: Cytotoxicity against mouse P388 cells; type: functional; details: read-out: ED50 (the source's name)
MCF7 = assay: Cytotoxicity against human MCF7 cells; type: functional
[1] = Solubility in water; type: physicochemical

Structure (SMILES) | GI50 (NCI-H460) | GI50 (DU-145) | GI50 (KM-20L2) | GI50 (BXPC-3) | GI50 (SF-268) | EC50 (P388) | GI50 (MCF7) | solubility [1]
O=C1N[C@@H]2C(=C[C@H](O)[C@H]3OP(=O)([O-])O[C@H]32)c2cc3c(c(O)c21)OCO3.[Na+] [SODIUM NARCISTATIN] | 0.058 µg/mL | 0.031 µg/mL | 0.06 µg/mL | 0.069 µg/mL | 0.047 µg/mL | 0.012 µg/mL | 0.059 µg/mL | 
O=C1N[C@H]2[C@H](OP(=O)([O-])[O-])[C@H](O)[C@@H](O)[C@H](O)[C@@H]2c2cc3c(c(O)c21)OCO3.[Ca+2] | 0.27 µg/mL | 0.12 µg/mL | 0.23 µg/mL | 0.25 µg/mL | 0.26 µg/mL | 0.21 µg/mL | 0.36 µg/mL | 
O=C1N[C@@H]2C(=C[C@H](O)[C@@H](O)[C@H]2O)c2cc3c(c(O)c21)OCO3 [NARCICLASINE] | 0.0084 µg/mL (≈ 0.0273 µM) | 0.0032 µg/mL (≈ 0.0104 µM) | 0.0032 µg/mL (≈ 0.0104 µM) | 0.0035 µg/mL (≈ 0.0114 µM) | 0.0031 µg/mL (≈ 0.0101 µM) | 0.013 µg/mL (≈ 0.0423 µM) | 0.0032 µg/mL (≈ 0.0104 µM) | 
O=C1N[C@H]2[C@H](O)[C@H](O)[C@@H](O)[C@H](O)[C@@H]2c2cc3c(c(OP(=O)([O-])[O-])c21)OCO3.[Na+].[Na+] | 0.19 µg/mL | 0.026 µg/mL | 0.17 µg/mL | 0.2 µg/mL | 0.079 µg/mL | 0.24 µg/mL | 0.2 µg/mL | 20 µg/mL
C=C[C@H]1CN2CC[C@H]1C[C@@H]2[C@@H](O)c1ccnc2ccc(OC)cc12.O=C1N[C@H]2[C@H](OP(=O)(O)O)[C@H](O)[C@@H](O)[C@H](O)[C@@H]2c2cc3c(c(O)c21)OCO3 | 0.36 µg/mL | 0.2 µg/mL | 0.23 µg/mL | 0.34 µg/mL | 0.27 µg/mL | 0.21 µg/mL | 0.38 µg/mL | 
O=C1N[C@H]2[C@H](OP(=O)([O-])O)[C@H](O)[C@@H](O)[C@H](O)[C@@H]2c2cc3c(c(O)c21)OCO3.[K+] | 0.4 µg/mL | 0.22 µg/mL | 0.3 µg/mL | 0.45 µg/mL | 0.39 µg/mL | 0.025 µg/mL | 0.46 µg/mL | 
O=C1N[C@H]2[C@H](O)[C@H](O)[C@@H](O)[C@H](O)[C@@H]2c2cc3c(c(O)c21)OCO3 [PANCRATISTATIN] | 0.032 µg/mL (≈ 0.0984 µM) | 0.015 µg/mL (≈ 0.0461 µM) | 0.025 µg/mL (≈ 0.0769 µM) | 0.02 µg/mL (≈ 0.0615 µM) | 0.014 µg/mL (≈ 0.043 µM) | 0.017 µg/mL (≈ 0.0523 µM) | 0.023 µg/mL (≈ 0.0707 µM) | 53 µg/mL (≈ 163 µM)
C1COCCN1.O=C1N[C@H]2[C@H](OP(=O)(O)O)[C@H](O)[C@@H](O)[C@H](O)[C@@H]2c2cc3c(c(O)c21)OCO3 | 0.46 µg/mL | 0.18 µg/mL | 0.37 µg/mL | 0.29 µg/mL | 0.38 µg/mL | 0.27 µg/mL | 0.4 µg/mL | 
O=C1N[C@H]2[C@H](OP(=O)([O-])[O-])[C@H](O)[C@@H](O)[C@H](O)[C@@H]2c2cc3c(c(O)c21)OCO3.[Mg+2] | 0.42 µg/mL | 0.22 µg/mL | 0.36 µg/mL | 0.4 µg/mL | 0.36 µg/mL | 0.02 µg/mL | 0.44 µg/mL | 
O=C(O[C@H]1[C@H](O)[C@@H](O)[C@@H](O)[C@@H]2NC(=O)c3c(cc4c(c3O)OCO4)[C@H]21)c1ccccc1 [PHENPANSTATIN] | 0.0001 µg/mL (≈ 0.000233 µM) | 0.00021 µg/mL (≈ 0.000489 µM) | 0.00037 µg/mL (≈ 0.000862 µM) | 0.0019 µg/mL (≈ 0.00442 µM) | 0.00055 µg/mL (≈ 0.00128 µM) | 0.0016 µg/mL (≈ 0.00373 µM) | 0.00031 µg/mL (≈ 0.000722 µM) | 
O=C1N[C@H]2[C@H](OP(=O)(O)O)[C@H](O)[C@@H](O)[C@H](O)[C@@H]2c2cc3c(c(O)c21)OCO3 | 0.42 µg/mL (≈ 1.04 µM) | 0.2 µg/mL (≈ 0.494 µM) | 0.33 µg/mL (≈ 0.814 µM) | 0.36 µg/mL (≈ 0.888 µM) | 0.35 µg/mL (≈ 0.864 µM) | 0.047 µg/mL (≈ 0.116 µM) | 0.43 µg/mL (≈ 1.06 µM) | 
O=C1N[C@H]2[C@H](OP(=O)([O-])O)[C@H](O)[C@@H](O)[C@H](O)[C@@H]2c2cc3c(c(O)c21)OCO3.[Na+] | 0.38 µg/mL | 0.94 µg/mL | 0.24 µg/mL | 0.18 µg/mL | 0.12 µg/mL | 0.018 µg/mL | 0.18 µg/mL | 
O=C1N[C@H]2[C@H](OP(=O)(O)O)[C@H](O)[C@@H](O)[C@H](O)[C@@H]2c2cc3c(c(O)c21)OCO3.c1c[nH]cn1 | 0.25 µg/mL | 0.13 µg/mL | 0.13 µg/mL | 0.25 µg/mL | 0.21 µg/mL | 0.063 µg/mL | 0.33 µg/mL | 
O=C1N[C@H]2[C@H](OP(=O)([O-])[O-])[C@H](O)[C@@H](O)[C@H](O)[C@@H]2c2cc3c(c(O)c21)OCO3.[Zn+2] | 0.42 µg/mL | 0.17 µg/mL | 0.3 µg/mL | 0.27 µg/mL | 0.38 µg/mL | 0.17 µg/mL | 0.47 µg/mL | 
C=C[C@H]1CN2CC[C@H]1C[C@H]2[C@H](O)c1ccnc2ccc(OC)cc12.O=C1N[C@H]2[C@H](OP(=O)(O)O)[C@H](O)[C@@H](O)[C@H](O)[C@@H]2c2cc3c(c(O)c21)OCO3 | 0.31 µg/mL | 0.15 µg/mL | 0.22 µg/mL | 0.23 µg/mL | 0.28 µg/mL | 0.066 µg/mL | 0.35 µg/mL | 
O=C1N[C@H]2[C@@H]3OP(=O)([O-])O[C@@H]3[C@@H](O)[C@H](O)[C@@H]2c2cc3c(c(O)c21)OCO3.[Na+] | 3.8 µg/mL | 2.3 µg/mL | 3.7 µg/mL | 3.3 µg/mL | 2.9 µg/mL | 3.33 µg/mL | 2.9 µg/mL | 
O=C(O[C@H]1[C@H](O)[C@H]2OP(=O)([O-])O[C@H]2[C@@H]2NC(=O)c3c(cc4c(c3O)OCO4)[C@H]21)c1ccccc1.[Na+] | 0.029 µg/mL | 0.13 µg/mL | 0.13 µg/mL | 0.25 µg/mL | 0.17 µg/mL | 0.061 µg/mL | 0.041 µg/mL | 
C1CNCCN1.O=C1N[C@H]2[C@H](OP(=O)(O)O)[C@H](O)[C@@H](O)[C@H](O)[C@@H]2c2cc3c(c(O)c21)OCO3 | 0.35 µg/mL | 0.21 µg/mL | 0.24 µg/mL | 0.31 µg/mL | 0.27 µg/mL | 0.019 µg/mL | 0.38 µg/mL | 
O=C1N[C@H]2[C@H](OP(=O)([O-])O)[C@H](O)[C@@H](O)[C@H](O)[C@@H]2c2cc3c(c(O)c21)OCO3.[Li+] | 0.35 µg/mL | 0.2 µg/mL | 0.25 µg/mL | 0.3 µg/mL | 0.28 µg/mL | 0.036 µg/mL | 0.39 µg/mL | 

— ChEMBL document CHEMBL1146488, “Antineoplastic agents. 511. Direct phosphorylation of phenpanstatin and pancratistatin” (J Nat Prod, 2004)
